The values below come from paper PMC7693160 (Pharmaceutics, 2020).

The nature of data set [1]: In vitro dissolution, USP II paddle apparatus. The format is physicochemical. How it is done: All dissolution tests were performed using a calibrated USP II (paddle) apparatus (Erweka DT 80, Heusenstamm, Germany) at 37 ± 0.4 °C. Each vessel contained 500 mL of fresh, pre-warmed medium and the rotational speed was set at 75 rpm. Samples were withdrawn at 2.5, 5, 10, 15, 20, 30, 45, 60, 90, and 120 min via a 5 mL glass syringe connected to a stainless-steel cannula containing a 10 μm polyethylene cannula filter. Immediately thereafter, the sample was filtered through a 0.45 μm PTFE filter (ReZist 30, GE Healthcare UK Ltd., Buckinghamshire, United Kingdom), discarding the first 2 mL. The filtrate was immediately diluted with mobile phase and analyzed by HPLC-UV (see Section 2.5). The removal of 5 mL at each sampling time was considered in the calculation of the percentage dissolved. All experiments were performed at least in triplicate (n ≥ 3) and the final pH in the vessel was recorded.
Samples obtained from solubility and dissolution experiments were first filtered through a 0.45 μm PTFE filter (ReZist 30 syringe filter or Uniprep; Whatman, Piscataway, NJ, USA) and subsequently, after appropriate dilution with mobile phase, analyzed by HPLC-UV (Hitachi Chromaster; Hitachi Ltd., Tokyo, Japan or Spectra System HPLC, ThermoQuest Inc., San Jose, CA, USA). A BDS Hypersil C18, 5 μm, 150 × 4.6 mm (Thermo Scientific, Waltham, MA, United States) analytical column combined with a pre-column (BDS Hypersil C-18, 3μm, 10 × 4mm) was used. The mobile phase consisted of water adjusted to pH = 3.0 with trifluoroacetic acid (TFA) and acetonitrile (49.5:0.5:50% v/v). The detection wavelength was set at 247 nm, the flow rate at 1.0 mL/min, and the injection volume at 20 μL. Using this method, the retention time was approximately 6.8 min. The limit of detection (LOD) and quantification (LOQ) were 0.03 and 0.05 μg/mL, respectively.

A short description of data set [2]: Model-based analysis of in vitro dissolution data (DLM, SIVA). The format is physicochemical. An excerpt:
The dissolution rate of spherical particles under sink and non-sink conditions within SIVA is described by an extension of the diffusion layer model (DLM) developed by Wang and Flanagan (Equation (3)). (3) DRt=-[…] where DRt is the dissolution rate at time t, N is the number of particles in a given particle size bin, and SDLM is a lumped correction scalar without regard to the mechanistic origin of the correction to the DLM. The SDLM estimates obtained with SIVA can be applied to the Simcyp PBPK simulator to reflect differences between media or formulations by simulating the respective in vivo dissolution; Deff is the effective diffusion coefficient; […] represent the thickness of the hydrodynamic boundary layer and the particle radius at time t, respectively; Ssurfacet corresponds to the saturation solubility at the particle surface (which may be different to the bulk fluid solubility, as discussed below); and Cbulkt is the concentration of dissolved drug in bulk solution at time t. The […] calculated by the fluid dynamics sub-model, which enables the hydrodynamic conditions to be described according to local conditions and stirring rate. Fluid dynamics-based […] recommended option for describing the hydrodynamics, as it permits a more rational translation of estimated parameters such as the SDLM to in vivo conditions, in which the hydrodynamics are usually quite different to in vitro experiments. […] Since the in vitro dissolution media have a somewhat […] buffer capacity than the intestinal fluids, the self-buffering effect at the solid surface can be underestimated. For this reason, the surface pH was calculated and directly input into SIVA. The calculation of the surface pH is based on the model first proposed by Mooney et al., which assumes that dissolution is the result of both chemical reaction between the conjugate base of the buffer species and the hydrogen cations released from the dissolving drug (in this case FLU) at the liquid-solid interface and the diffusion of the dissolved particles to the bulk. This model is very similar to the quasi-equilibrium model published by Ozturk et al., a derivative of which is implemented in SIVA as the default option for surface pH calculations. By fitting the DLM model to the observed dissolution data, we obtained SDLM estimates for each dissolution and two-stage test. In the case of two-stage testing, different SDLM values were obtained for the gastric and intestinal compartments, accounting for the changes in the respective in vitro conditions. Under fasted state intestinal conditions, FLU is freely soluble and therefore dissolution is not expected to be solubility limited. In that case, disintegration of the solid dosage form in the intestinal dissolution medium might be the rate-limiting step for the in vitro dissolution rate, especially in single dissolution experiments where the dosage form is directly exposed to the intestinal medium without any pre-treatment in a gastric medium. […] For the two-stage test experiments, the option was kept deactivated since disintegration in the stomach is already accounted for by the dissolution in the gastric medium. Both gastric and intestinal phases of the two-stage results were modelled simultaneously using the serial dilution model, which can account for more than one in vitro dissolution condition in the same experiment. Estimation of the relevant parameters was performed using the Nelder-Mead algorithm and equal weighting was applied. […]

`CC(C(=O)O)c1ccc(-c2ccccc2)c(F)c1` (stereo not shown) [flurbiprofen]: the maximum dissolved in data set [1] (FaSSGF Level I, 100 mg) came out at 5.5%. Besides, the “plateau of in vitro release” value in data set [1] (FaSSGF Levels I and III, 100 mg) is listed as “around 8.3 % of the dose”. Further, the “time to 85% dissolved” value in data set [1] (FaSSIF V3 Level I (without bile components)) was found to be 60 min. In addition, the “time to >85% dissolved” value was at most 2.5 min in data set [1] (FaSSIF V3 Level II) and at most 15 min in data set [1] (Ph. Eur. phosphate buffer (pH 6.8)). The “SDLM (95% CI)” value in data set [2] (FaSSGF Level III) was 0.0218 (0.0161–0.0274); in data set [2] (FaSSIF V3 Level I, listed as API), 0.00185; in data set [2] (FaSSIF V3 Level I, listed as API Powder) it was 0.00185 (0.001–0.00312); in data set [2] (FaSSIF V3 Level II) it was 0.0965 (0.0544–0.139); in data set [2] (Ph. Eur. Phosphate Buffer) it was 0.00542 (0.00468–0.00617).
